{
  "source": "patent US5936065A",
  "about": "“CS-1 peptidomimetics, compositions and methods of using the same” (Cytel Corporation, priority 1995, dated 1999)",
  "key": {"VLA-4 receptor": {"molecular_target": "T1, VLA-4 receptor (Homo sapiens, UniProt P05556+P13612)", "T1 construct": "inflammatory cells that contain the VLA-4 receptor [Jurkat cells; host or cells: Jurkat cells (human T lymphoblastic line)", "T1 sequence (P13612 34-1032)": "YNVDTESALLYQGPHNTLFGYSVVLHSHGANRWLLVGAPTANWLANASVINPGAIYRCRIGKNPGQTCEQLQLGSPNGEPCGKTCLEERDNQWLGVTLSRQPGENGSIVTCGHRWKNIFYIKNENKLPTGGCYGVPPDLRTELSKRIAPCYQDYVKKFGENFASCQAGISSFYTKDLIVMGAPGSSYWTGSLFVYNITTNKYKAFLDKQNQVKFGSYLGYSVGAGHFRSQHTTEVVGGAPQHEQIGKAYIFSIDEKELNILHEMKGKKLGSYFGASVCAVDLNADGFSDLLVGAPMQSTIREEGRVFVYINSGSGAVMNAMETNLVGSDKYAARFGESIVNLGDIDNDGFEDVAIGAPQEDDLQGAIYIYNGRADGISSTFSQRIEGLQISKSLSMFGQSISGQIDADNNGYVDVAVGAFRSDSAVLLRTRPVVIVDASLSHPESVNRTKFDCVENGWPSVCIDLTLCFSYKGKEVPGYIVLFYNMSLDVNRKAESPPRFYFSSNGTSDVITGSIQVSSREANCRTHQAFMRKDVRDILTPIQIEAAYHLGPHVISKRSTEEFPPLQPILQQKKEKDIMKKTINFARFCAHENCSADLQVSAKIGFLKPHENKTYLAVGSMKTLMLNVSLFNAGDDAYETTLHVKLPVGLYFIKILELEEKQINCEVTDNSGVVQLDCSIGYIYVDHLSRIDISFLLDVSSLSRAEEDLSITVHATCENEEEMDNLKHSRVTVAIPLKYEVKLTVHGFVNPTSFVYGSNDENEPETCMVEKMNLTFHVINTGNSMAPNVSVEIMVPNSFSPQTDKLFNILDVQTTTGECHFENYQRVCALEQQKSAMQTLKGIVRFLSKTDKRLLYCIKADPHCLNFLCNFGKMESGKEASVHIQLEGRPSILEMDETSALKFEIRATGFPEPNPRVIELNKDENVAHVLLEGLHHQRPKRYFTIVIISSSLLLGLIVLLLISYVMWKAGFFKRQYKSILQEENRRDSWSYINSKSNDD", "T1 sequence (P05556 21-798)": "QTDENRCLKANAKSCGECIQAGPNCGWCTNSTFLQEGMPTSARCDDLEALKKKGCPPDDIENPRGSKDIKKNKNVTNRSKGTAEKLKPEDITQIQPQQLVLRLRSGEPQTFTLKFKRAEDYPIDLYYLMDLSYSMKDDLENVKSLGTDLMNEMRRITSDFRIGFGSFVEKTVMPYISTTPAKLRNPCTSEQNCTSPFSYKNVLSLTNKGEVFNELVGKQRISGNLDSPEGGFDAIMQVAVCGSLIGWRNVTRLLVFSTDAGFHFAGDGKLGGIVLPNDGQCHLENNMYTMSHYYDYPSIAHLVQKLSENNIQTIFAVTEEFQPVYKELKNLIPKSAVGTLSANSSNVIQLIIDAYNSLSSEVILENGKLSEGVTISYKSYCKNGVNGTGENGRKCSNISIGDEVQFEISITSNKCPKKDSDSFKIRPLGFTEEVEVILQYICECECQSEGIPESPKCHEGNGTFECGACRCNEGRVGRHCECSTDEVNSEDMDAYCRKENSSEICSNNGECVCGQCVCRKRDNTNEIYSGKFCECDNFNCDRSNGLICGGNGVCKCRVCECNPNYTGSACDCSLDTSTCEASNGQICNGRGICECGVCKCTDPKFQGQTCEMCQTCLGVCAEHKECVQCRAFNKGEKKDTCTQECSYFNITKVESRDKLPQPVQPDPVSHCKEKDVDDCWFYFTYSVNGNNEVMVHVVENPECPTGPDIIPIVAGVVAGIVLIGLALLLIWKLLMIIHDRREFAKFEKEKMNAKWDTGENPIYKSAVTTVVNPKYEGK", "assay": "In vitro binding assay: inhibition of binding of 51Cr-labeled Jurkat cells to solid phase-bound CS-1 compound (SEQ ID NO:1)", "type": "cell-based", "conditions": "for Relative Potency: binding inhibition potency (IC50) normalized to standard compound of SEQ ID NO:3 = 1, multiple assays averaged, about one-tenth or less assigned zero", "description": "Binding inhibition is measured here as a concentration of compound that inhibits one-half the binding between a standard number of Jurkat cells and a standard amount of CS-1 compound bound to the surface of a microtiter plate well. Those concentrations are conveniently expressed as IC50 values, smaller numbers indicating a lower concentration required to inhibit 50 percent binding and therefore greater potency. Further specifics of this assay are provided hereinafter.\nJurkat cells (ATCC TIB 152), a human T lymphoblastic line, labeled with ^51 chromium were used to assay in vitro binding inhibition provided by various compounds discussed herein.\nThe plates were prepared as follows: The 25-mer CS-1 compound (SEQ ID NO:1) dissolved at 0.5-1 μg/ml in a buffer of 0.1M NaHCO3 at pH 9.5 that also contained 10 μg/ml of bovine serum albumin (BSA) or a conjugate of the CS-1 compound linked to ovalbumin (CS-1-OVA) dissolved at 1-2.5 μg/ml in the same buffer was used as the substrate. Each well of the microtiter plates was coated with 50 μl of substrate or buffer alone for controls. The wells were permitted to dry out completely and were then rinsed twice with PBS at pH 7.4. Non-specific binding sites of each well were then blocked using 200 μl per well of RPMI/1 percent BSA for two hours at room temperature.\nJurkat cells (3-5×10^6 cells) were placed into a 15 ml Falcon™ round-bottom tube with a cap. The tube was centrifuged, and the extra medium was then removed.\nTwo hundred microliters of a ^51 Cr labeling solution were added to the centrifuged cells and maintained in contact with the cells for 90-120 minutes in a warm room. […] Longer contact times provide a greater amount of labeling but lower cell viability.\nThe labeled cells are washed with (i) complete medium, (ii) 1 mM EDTA/PBS and then (iii) RPM1/1 percent BSA free of serum components. The cells are centrifuged after each washing. The cells are finally resuspended in serum-free RPMI/1 percent BSA at a concentration of 1×10^6 viable cells/ml, which provides a concentration that is diluted by one-half in the assay.\nInhibitor compounds are prepared as stock solutions at 20 mg/ml in DMSO in 1.5 ml cryogenic screwcap vials, and were stored at -70° C. Using Flow™ round-bottom or V-bottom microtiter plates, the inhibitor compounds were prepared at twice the assay concentration in RPMI/1 percent BSA at 60 μl/well.\nFour initial dilutions were typically used.\nThe ^51 Cr-labeled cells ([…] at 60 μl/well) were then admixed with the diluted compound solutions. The admixtures were maintained at room temperature (about 22° C.) for 30 minutes.\nOne hundred microliters of each inhibitor compound/cell admixture were transferred to the substrate-coated wells. This was done in triplicate for each dilution. The resulting plates were incubated for 30 minutes at 37° C. and then washed gently three times with RPMI/1 percent BSA at 200 μl/well. Binding was observed microscopically, particularly after the second wash.\nThe bound cells were then lysed by the addition of a 0.5 percent solution of sodium dodecylsulfate in water at 100 μl/well. The resulting solutions were then processed for counting and calculation of IC50 values following usual procedures.\nThe data of Table 1 are normalized to the binding of SEQ ID NO:3. […] Multiple assays for the same compound were averaged."}, "[1]": {"test_system": "New Zealand white rabbits", "assay": "Treatment of asthmatic rabbits (house dust mite antigen challenge, crossover study)", "type": "in vivo, rabbit", "conditions": "100 mg/kg nebulizer", "description": "Six New Zealand white rabbits were immunized with house dust mite antigen from birth through four months of age. Upon immunization, three rabbits received a single nebulizer administration of the inhibitor compound, Compound ID No. 1051.01, N-phenylacetyl-Leu-Asp-Phe-morpholinamide in aqueous 50 percent ethanol as diluent in an amount of 100 mg/kg, and the other three received diluent alone. All of the rabbits were challenged with house dust mite antigen about 15-30 minutes after administration of the compound, with those animals not receiving compound serving as controls.\nOnce immunized and challenged, the inflammatory state subsides to a basal level within about three weeks. The three animals used as controls were thereafter used as subjects for receipt of an inhibitor compound, and the three rabbits that initially received the compound can serve as controls.\nSuch a crossover study was done here. […]\nInitial pulmonary function, measured by dynamic compliance (Cdyn) and lung resistance (RL) , and bronchoalveolar lavage (BAL) to obtain an effector cell count, here eosinophils, were conducted prior to administration of the compound or diluent for both portions of this crossover study. […]"}, "BALB/c mice": {"test_system": "BALB/c mice", "assay": "Adoptive transfer delayed type hypersensitivity (oxazolone) in mice", "type": "in vivo, mouse", "conditions": "versus vehicle alone; implanted pump, 24 hours", "description": "An adoptive transfer delayed-type hypersensitivity murine model has been developed using splenic T cells primed to oxazolone. This model is described in Elices et al., Clin. Exp. Rheum., 11(Suppl. 8):577-580 (1993), whose procedures were followed here.\nThus, BALB/c mice were shaved on the belly and painted (50 μl on the belly and 5 μl on each paw) with three percent oxazolone in acetone/olive oil (4:1) at days zero and 1. At day 5, the mice were sacrificed, their spleens removed, and splenic T cells were obtained via nylon wool columns.\nNormal saline or saline containing 25×10^6 /animal of the oxazolone-immune T cells were separately injected into naive mice. The mice were then challenged by painting 10 μl of 2 percent oxazolone onto one ear each. All procedures were carried out under sterile conditions and in endotoxin-free buffers.\nPrior to challenge or saline injection, the mice were implanted with pumps that subcutaneously administered normal saline, normal saline containing the compound, Compound ID No. 896.52, N-phenylacetyl-Leu-Asp-Phe-D-Pro-NH2, or normal saline containing a compound with a scrambled sequence continually at 6 mg/kg/day for a 24-hour time period. The swelling diameter at the site of challenge or saline injection was measured with a microcaliper 24 hours thereafter.\nAn expanded study was carried out as described above except that a scrambled compound control was not used as a control for further inhibitor compounds of Table 1 with larger groups of mice. Statistical analyses were carried out versus injection of vehicle alone."}, "Jurkat T cell line": {"test_system": "Jurkat T cell line", "assay": "Binding of Jurkat cells to frozen human RA synovial sections", "type": "cell-based", "conditions": "10-mer at 500 μg/ml; 896.52 at its IC50 value", "description": "Binding studies were carried out using the Jurkat T cell line and frozen RA synovial sections. […] Stimulated MOLT-4 cells behaved similarly.\nThe absolute value of that IC50 value is about 0.5 μmolar."}, "mouse": {"test_system": "mouse", "conditions": "in vivo; cited from earlier work"}},
  "note": "Square brackets hold non-standard residues; d marks the D form. Peptide text beside a SMILES is read from it. * marks the point of attachment. NMeD = CN[C@@H](CC(=O)O)C(=O)O; Morpholide = C1CN(*)CCO1; PhAc = O=C(Cc1ccccc1)*",
  "data": [
    {"compound": "CC(C)C[C@H](NC(=O)Cc1ccccc1)C(=O)N[C@@H](CC(=O)O)C(=O)N[C@@H](Cc1ccccc1)C(=O)N1CCOCC1", "note": "[1051.01, N-phenylacetyl-Leu-Asp-Phe-morpholinamide] (PhAc-Leu-Asp-Phe-Morpholide)", "values": [
      {"measurement": "binding inhibition, in words (compared with standard 10-mer of SEQ ID NO:3 or other compounds)", "setting": "VLA-4 receptor", "value": "greatest potency"},
      {"measurement": "Cdyn value over six hours after challenge", "setting": "[1]; FIG. 4A", "value": "stayed at about the initial value"},
      {"measurement": "RL values over six hours after challenge, percent of initial value", "setting": "[1]; FIG. 4B", "value": "≤ 200", "unit": "%"}
    ]},
    {"compound": "CC(C)C[C@H](NC(=O)Cc1ccccc1)C(=O)N[C@@H](CC(=O)O)C(=O)N[C@@H](Cc1ccccc1)C(=O)N1CCC(O)CC1", "note": "[1070.02, .phi.Ac--Leu--Asp--Phe--4-hydroxpiperidinamide]", "values": [
      {"measurement": "Percent Inhibition of post-challenge swelling, expanded study", "setting": "BALB/c mice", "value": 29, "unit": "%"}
    ]},
    {"compound": "CC(C)C[C@H](NC(=O)Cc1ccccc1)C(=O)N[C@@H](CC(=O)O)C(=O)N[C@@H](Cc1ccccc1)C(=O)N1CCN(CC(=O)O)CC1", "note": "[1111.06, .phi.Ac--Leu--Asp--Phe--4-N(carboxy-methyl)piperazinamide]", "values": [
      {"measurement": "Relative Potency", "setting": "VLA-4 receptor", "value": 2600},
      {"measurement": "Percent Inhibition of post-challenge swelling, expanded study", "setting": "BALB/c mice", "value": 30, "unit": "%"}
    ]},
    {"compound": "CC(C)C[C@H](NC(=O)Cc1ccccc1)C(=O)N(C)[C@@H](CC(=O)O)C(=O)N[C@@H](Cc1ccccc1)C(=O)N1CCC[C@@H]1C(N)=O", "note": "[1190.06] (PhAc-L[NMeD]F[dP]-NH2)", "values": [
      {"measurement": "Relative Potency", "setting": "VLA-4 receptor", "value": 0}
    ]},
    {"compound": "CC[C@H](C)[C@H](NC(=O)[C@H](CCC(=O)O)NC(=O)[C@@H]1CCCN1C(=O)CN)C(=O)N[C@@H](CC(C)C)C(=O)N[C@@H](CC(=O)O)C(=O)N[C@H](C(=O)N1CCC[C@H]1C(=O)N[C@@H](CO)C(=O)N[C@H](C(=O)O)[C@@H](C)O)C(C)C", "note": "[SEQ ID NO:3, GPEILDVPST] (H-GPEILDVPST-OH)", "values": [
      {"measurement": "inhibition of Jurkat cell adhesion to RA synovial sections", "setting": "Jurkat T cell line", "value": "could be inhibited"}
    ]},
    {"compound": "Arg-Gly-Asp [Arg-Gly-Asp peptide]", "values": [
      {"measurement": "inhibition of contact hypersensitivity / T lymphocyte recruitment to skin inflammatory sites", "setting": "mouse", "value": "also inhibitory"}
    ]}
  ]
}
